Experiment [1] addresses T1, ACE-2 (Homo sapiens, UniProt Q9BYF1).
T1 construct: a stop codon inserted after the serine immediately preceding the transmembrane domain; made in house; host or cells: CHO K1 cells (transient transfection, purified from conditioned medium)
Description: ACE-2 Competitive Substrate Assay (ACS Assay). The class given is biochemical. The conditions noted are these: Ki class; compounds tested in 5% DMSO, 12 concentrations; read-out: Human ACE-2 Activity.
Description: An example of such an assay is the ACE-2 Competitive Substrate Assay (ACS Assay).
ACE-2 enzymatic activity was assayed in microtitre plates by the following procedure. The ACE-2 assay buffer used contained 50 mM MES (Boehringer-Mannheim), 300 mM NaCl (Sigma) and 0.01% Brij-35 (Pierce Chemical Co.) at pH 6.5.
Reactions were mixed and incubated at 25° C.
The activity of the test compounds was investigated using the procedure outlined above. The compounds were tested in 5% DMSO. Enzyme activity was measured at 12 compound concentrations.
The following reagents, equipment, stock solutions, and working solutions are used for the ACE-2 assay.
The assay buffer is prepared using 50 mM Mes, 300 mM NaCl, and 0.01% Brij 35, pH 6.5. These components are measured and made up to approximately 800 ml with nanopure water. Using 1M NaOH the pH is adjusted to 6.5 and the solution is then made up to the final volume of 1 L using nanopure water. The buffer is filtered through a 0.45 um disposable filter unit and stored at +4° C. until needed.
This working solution maintains activity for up to 8 hours at room temperature.
The working ACE-2 solution (for using with Mca-APK(Dnp)) is prepared by thawing ACE-2 and diluting it to a concentration of 1 nM using the assay buffer at room temperature.
These solutions are stable up to 8 hours but can not be frozen-thawed for reuse.
Multiple well plates are used for this experiment.
Approximately 360 compounds are tested per plate. Five μl per of each test compound is added in each well. […] Immediately thereafter, 20 μl of Mca-XXX(Dnp) working solution is added per well and mixed for 30 seconds. The reaction is allowed to progress for approximately 60 minutes.
After approximately 60 minutes, 20 μl of 50 mM EDTA is added per well (reaction is linear up to 90 minutes) and mixed for 30 seconds. At this point the fluorescent signal is stable up to 20 hours at room temperature.

Experiment [2] deals with T2, ACE (Sigma, A2580) (Sus scrofa, UniProt F1RRW5).
T2 construct: ACE from porcine kidney; purchased Sigma A2580; host or cells: porcine kidney
T2 sequence (F1RRW5 34-1309): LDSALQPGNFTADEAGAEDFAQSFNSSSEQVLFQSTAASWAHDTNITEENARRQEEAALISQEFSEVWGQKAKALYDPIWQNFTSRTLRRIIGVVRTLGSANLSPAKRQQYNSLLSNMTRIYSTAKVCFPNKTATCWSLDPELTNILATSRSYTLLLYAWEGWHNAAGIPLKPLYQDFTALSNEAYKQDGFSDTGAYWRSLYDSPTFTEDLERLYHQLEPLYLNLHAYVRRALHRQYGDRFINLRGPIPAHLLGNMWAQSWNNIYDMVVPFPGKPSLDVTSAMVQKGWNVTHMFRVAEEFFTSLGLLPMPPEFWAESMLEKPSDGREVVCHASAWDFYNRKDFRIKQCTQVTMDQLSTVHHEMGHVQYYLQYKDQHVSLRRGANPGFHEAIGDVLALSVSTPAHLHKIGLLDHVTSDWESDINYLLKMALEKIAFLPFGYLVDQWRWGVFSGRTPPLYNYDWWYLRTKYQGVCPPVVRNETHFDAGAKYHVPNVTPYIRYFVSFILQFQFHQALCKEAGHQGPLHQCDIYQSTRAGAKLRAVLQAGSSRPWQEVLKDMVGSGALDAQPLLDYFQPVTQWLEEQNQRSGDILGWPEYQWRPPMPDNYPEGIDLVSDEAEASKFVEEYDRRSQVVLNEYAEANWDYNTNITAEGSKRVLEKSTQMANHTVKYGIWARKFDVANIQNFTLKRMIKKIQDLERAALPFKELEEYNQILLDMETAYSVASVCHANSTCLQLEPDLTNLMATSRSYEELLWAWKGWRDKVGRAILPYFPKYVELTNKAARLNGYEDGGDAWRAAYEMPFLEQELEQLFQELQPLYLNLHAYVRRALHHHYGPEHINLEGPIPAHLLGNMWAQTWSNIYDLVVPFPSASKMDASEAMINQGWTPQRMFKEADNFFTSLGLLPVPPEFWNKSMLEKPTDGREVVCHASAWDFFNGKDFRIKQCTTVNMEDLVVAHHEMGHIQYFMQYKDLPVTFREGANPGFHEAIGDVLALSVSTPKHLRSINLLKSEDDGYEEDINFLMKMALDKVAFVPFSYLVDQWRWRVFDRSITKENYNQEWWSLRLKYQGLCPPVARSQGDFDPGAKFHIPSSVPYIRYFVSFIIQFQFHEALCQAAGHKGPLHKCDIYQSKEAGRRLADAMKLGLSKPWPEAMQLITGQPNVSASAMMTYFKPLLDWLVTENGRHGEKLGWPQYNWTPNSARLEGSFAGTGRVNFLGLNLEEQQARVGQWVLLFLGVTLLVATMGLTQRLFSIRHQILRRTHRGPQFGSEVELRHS
Kind of experiment: ACE enzymatic activity assay. It is filed as biochemical, porcine. The conditions noted are these: Ki class; compounds tested in 5% DMSO, 12 concentrations. The method, boiled down:
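Fluorogenic substrate cleavage by 1 nM ACE, read at 320/405 nm after EDTA stop at ~30 min. Reactions at 25 °C, pH 7.5, in HEPES/NaCl/Brij-35 buffer; compounds tested at 12 concentrations in 5% DMSO.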

Experiment [3] deals with T3, Carboxypeptidase A (Bos taurus, UniProt P00730).
T3 sequence (P00730 111-419): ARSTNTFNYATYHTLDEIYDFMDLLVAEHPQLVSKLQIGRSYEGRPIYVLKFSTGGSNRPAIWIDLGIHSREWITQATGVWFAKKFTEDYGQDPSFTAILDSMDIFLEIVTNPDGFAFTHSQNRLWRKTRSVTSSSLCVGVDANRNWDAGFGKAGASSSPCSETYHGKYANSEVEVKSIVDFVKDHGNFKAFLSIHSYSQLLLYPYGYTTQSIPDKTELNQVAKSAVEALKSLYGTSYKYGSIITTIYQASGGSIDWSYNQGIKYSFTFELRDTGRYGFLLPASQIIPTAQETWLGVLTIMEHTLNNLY
Description: Carboxypeptidase A activity assay. The class given is biochemical. The note with it: Ki class; compounds tested in 5% DMSO, 12 concentrations. The method, boiled down:
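Ki obtained by correcting apparent Ki for substrate, Ki=Kiapp/(1+[S]/Km), from 12-concentration series. Enzyme activity read by absorbance at 328 nm with 5% DMSO present, EDTA stop.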

SMILES strings stand for the structures. pKi: −log10 of the molar value.

T1 sequence (Q9BYF1 18-740 limits assumed): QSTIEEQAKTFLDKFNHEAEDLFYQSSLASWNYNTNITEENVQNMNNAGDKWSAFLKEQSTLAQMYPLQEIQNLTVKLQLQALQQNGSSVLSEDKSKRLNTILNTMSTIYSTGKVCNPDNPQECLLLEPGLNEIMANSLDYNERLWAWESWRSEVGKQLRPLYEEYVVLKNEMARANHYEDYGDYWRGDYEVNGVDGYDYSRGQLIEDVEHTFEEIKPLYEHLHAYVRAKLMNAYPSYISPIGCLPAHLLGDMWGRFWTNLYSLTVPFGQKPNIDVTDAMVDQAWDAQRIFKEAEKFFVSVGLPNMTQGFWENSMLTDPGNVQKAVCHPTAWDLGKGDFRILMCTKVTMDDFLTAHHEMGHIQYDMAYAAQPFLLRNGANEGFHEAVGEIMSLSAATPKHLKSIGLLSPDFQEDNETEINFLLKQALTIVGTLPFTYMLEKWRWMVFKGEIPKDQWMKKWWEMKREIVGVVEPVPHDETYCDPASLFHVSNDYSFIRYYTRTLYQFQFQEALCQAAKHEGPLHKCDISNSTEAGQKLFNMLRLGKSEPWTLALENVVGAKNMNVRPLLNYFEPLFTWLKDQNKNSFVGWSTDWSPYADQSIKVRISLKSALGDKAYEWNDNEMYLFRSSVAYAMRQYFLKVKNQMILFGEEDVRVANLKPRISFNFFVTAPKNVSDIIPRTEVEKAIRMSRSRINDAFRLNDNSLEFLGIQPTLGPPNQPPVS

As to `CC(C)CC(NCC(C)C(=O)O)C(=O)O` (stereo not drawn) [CG, 2-(2-Carboxy-propylamino)-4-methyl-pentanoic acid], the pKi in experiment [1] was less than 6.30; in experiment [2], less than 4.30; in experiment [3] it was less than 4.30.
Consider `CCCCCCC(N[C@H](CCc1ccccc1)C(=O)O)C(=O)O` (stereo partly drawn) [CH, 2-(1-Carboxy-3-phenyl-propylamino)-octanoicacid], for which the pKi in experiment [1] was less than 6.30; in experiment [2], less than 4.30; in experiment [3], less than 4.30.
In the case of `CC(C)CC(N[C@H](CCc1ccccc1)CC(=O)O)C(=O)O` (stereo partly drawn) [CI, 2-(1-Carboxymethyl-3-phenyl-propylamino)-4-methyl-pentanoic acid], the pKi in experiment [1] was less than 6.30; in experiment [2] it was less than 4.30; in experiment [3] it was less than 4.30.
For `CC(C)CC(N[C@H](CCc1ccccc1)C(=O)O)C(=O)O` (stereo partly drawn) [CM, 2-(1-Carboxy-3-phenyl-propylamino)-4-methyl-pentanoic acid], the pKi in experiment [1] was less than 6.30; in experiment [2], less than 4.30; in experiment [3], less than 4.30.
For the compound `CC(C)C[C@H](NCc1ccc(C(=O)O)cc1)C(=O)O` [CN, 4-[(1-Carboxy-3-methyl-butylamino)-methyl]-benzoic acid], the pKi in experiment [1] was less than 6.30; in experiment [2] it was less than 4.30; in experiment [3] it was less than 4.30.
On to `CC(C)C[C@@H](N[C@H](Cc1cscn1)C(=O)O)C(=O)O` [CO, 2-(1-Carboxy-2-thiazol-4-yl-ethylamino)-4-methyl-pentanoic acid], for which the values for the pKi in experiment [1], in experiment [2] and in experiment [3] were less than 6.30, less than 4.30 and less than 4.30, respectively.
For the compound `CC(C)CC(NC(CC(=O)O)c1ccccc1)C(=O)O` (stereo not drawn) [CQ, 2-(2-Carboxy-1-phenyl-ethylamino)-4-methyl-pentanoic acid], the pKi in experiment [1] was less than 6.30; in experiment [2], less than 4.30; in experiment [3], less than 4.30.
As for `Cc1ccc(C[C@H](CC(=O)O)NC(CC(C)C)C(=O)O)cc1` (stereo partly drawn) [CS, 2-[2-Carboxy-1-(4-methyl-benzyl)-ethylamino]-4-methyl-pentanoic acid], the pKi in experiment [1] was less than 6.30; in experiment [2] it was less than 4.30; in experiment [3], less than 4.30.
`CC(C)C[C@H](NCCCc1ccccc1)C(=O)O` [CY, 4-Methyl-2-(3-phenyl-propylamino)-pentanoicacid]: the figures for the pKi in experiment [1], in experiment [2] and in experiment [3] were less than 6.30, less than 4.30 and less than 4.30, respectively.
As to `CC(C)C[C@H](N[C@@H](CCc1ccccc1)C(=O)O)C(=O)OC(C)(C)C` [CZ, 2-(1-Carboxy-3-phenyl-propylamino)-4-methyl-pentanoic acid tert-butyl ester], the pKi was less than 6.30 in experiment [1], less than 4.30 in experiment [2] and less than 4.30 in experiment [3].
In the case of `CC(C)C[C@H](N[C@H](CCc1ccccc1)C(=O)O)C(=O)OC(C)(C)C` [DA, 2-(1-Carboxy-3-phenyl-propylamino)-4-methyl-pentanoic acid tert-butyl ester], the pKi was less than 6.30 in experiment [1], less than 4.30 in experiment [2] and less than 4.30 in experiment [3].
`CC(C)C[C@H](N[C@@H](CCc1ccccc1)C(=O)O)C(N)=O` [DB, 2-(1-Carbamoyl-3-methyl-butylamino)-4-phenyl-butync acid]: the pKi was less than 6.30 in experiment [1], less than 4.30 in experiment [2] and less than 4.30 in experiment [3].
As to `CC(C)C[C@H](N[C@H](CCc1ccccc1)C(=O)O)C(N)=O` [DC, 2-(1-Carbamoyl-3-methyl-butylamino)-4-phenyl-butync acid], the pKi was less than 6.30 in experiment [1], less than 4.30 in experiment [2] and less than 4.30 in experiment [3].
With `COC(=O)[C@H](CC(C)C)NC(=O)NCc1ccccc1` [DF, 2-(3-Benzyl-ureido)-4-methyl-pentanoic acidmethyl ester], the pKi in experiment [1] is less than 6.30; in experiment [2], less than 4.30; in experiment [3], less than 4.30.
In the case of `CC(C)CCNC(CCc1ccccc1)C(=O)O` (stereo not drawn) [DR, 2-(3-Methyl-butylamino)-4-phenyl-butync acid], the pKi in experiment [1] was less than 6.30; in experiment [2] it was less than 4.30; in experiment [3] it was 4.30 to 5.00.
On to `CC(C)C[C@H](NC(=O)NCc1ccccc1)C(=O)O` [DU, 2-(3-Benzyl-ureido)-4-methyl-pentanoic acid], for which the pKi is less than 6.30 in experiment [1], less than 4.30 in experiment [2] and 4.30 to 5.00 in experiment [3].
Consider `CC(C)C[C@H](NC(=O)NCCc1ccccc1)C(=O)O` [DV, 4-Methyl-2-(3-phenethyl-ureido)-pentanoic acid], for which the results for the pKi in experiment [1], in experiment [2] and in experiment [3] were less than 6.30, less than 4.30 and greater than 5.00, respectively.
With `CC(C)C[C@H](NCC(=O)c1ccccc1)C(=O)O` [DW, 4-Methyl-2-(2-oxo-2-phenyl-ethylamino)-pentanoic acid], the pKi in experiment [1] was less than 6.30; in experiment [2], less than 4.30; in experiment [3], greater than 5.00.
Taken in the same sequence, the figures for `CC(C)CCN[C@@H](Cc1c[nH]cn1)C(=O)O` [DY, 3-(1H-Imidazol-4-yl)-2-(3-methyl-butylamino)-propionic acid] were less than 6.30, less than 4.30 and less than 4.30.
Taken in the same sequence, the figures for `CC(C)CC(NCCc1c[nH]cn1)C(=O)O` (stereo not drawn) [DZ, 2-[2-(1H-imidazol-4-yl)-ethylamino]-4-methyl-pentanoic acid] were less than 6.30, less than 4.30 and less than 4.30.
Taken in the same sequence, the figures for `CC(C)CC(N[C@H](CC(=O)O)Cc1cccs1)C(=O)O` (stereo partly drawn) [EI, 2-(1-Carboxymethyl-2-thiophen-2-yl-ethylamino)-4-methyl-pentanoic acid] were less than 6.30, less than 4.30 and less than 4.30.
With `O=C(O)C(Cc1ccccc1)N[C@@H](Cc1cnc[nH]1)C(=O)O` (stereo partly drawn) [EK, 2-(1-Carboxy-2-phenyl-ethylamino)-3-(3H-imidazol-4-yl)-propionicacid], the pKi in experiment [1] was less than 6.30; in experiment [2], 4.30 to 5.00; in experiment [3], 4.30 to 5.00.
With `COc1ccc(C#CC[C@H](N[C@@H](CCc2ccccc2)C(=O)O)C(=O)O)cc1` [FR, 2-(1-Carboxy-3-phenyl-propylamino)-5-(4-methoxy-phenyl)-pent-4-ynoic acid], the results for the pKi in experiment [1], in experiment [2] and in experiment [3] were less than 6.30, less than 4.30 and less than 4.30, respectively.
As to `CC(N[C@@H](Cc1c[nH]cn1)C(=O)O)C(=O)O` (stereo partly drawn) [N, 2-(1-Carboxy-ethylamino)-3-(1H-imidazol-4-yl)-propionic acid], the pKi is less than 6.30 in experiment [1], less than 4.30 in experiment [2] and less than 4.30 in experiment [3].
Take `C[C@H](N[C@@H](CCc1ccccc1)C(=O)O)C(=O)O` [P, 2-(1-Carboxy-ethylamino)-4-phenyl-butync acid]: the pKi in experiment [1] is less than 6.30; in experiment [2], less than 4.30; in experiment [3], less than 4.30.
Turning to `CCCCC(N[C@@H](CC(C)C)C(=O)O)C(=O)O` (stereo partly drawn) [Q, 2-(1-Carboxy-3-methyl-butylamino)-hexanoic acid], the figures for the pKi in experiment [1], in experiment [2] and in experiment [3] were less than 6.30, less than 4.30 and less than 4.30, respectively.
